Patent US11447525B2 (NIIGATA UNIVERSITY, priority 2018, dated 2022)
Non-standard residues stand in square brackets, D forms with d. Residues, ends and D or L forms follow the SMILES beside them. No end group written: not given here. *: point of attachment. 5FAM = O=C1OC2(c3ccc(O)cc3Oc3cc(O)ccc32)c2ccc(C(=O)*)cc21; NMeR = CN[C@@H](CCCNC(=N)N)C(=O)O

Experiment: Degradation test by human blood plasma, MALDI-TOFMS analysis
Format: in vitro ADME
Settings: for remaining at 5 min / remaining at 10 min / remaining at 20 min / remaining at 0.5 h / remaining at 1 h / remaining at 2 h: read-out: degradation resistance (proportion of the peptide retained without degradation)
Experimental: Specifically, a peptide composed of the amino acid sequence represented by SEQ ID NO: 1 (hereafter sometimes referred to as “PCPP11”) was added to human blood plasma having a concentration of 50% by mass, the mixture was sampled immediately after starting the degradation test (after 0 minutes), and then after 5 minutes, after 10 minutes, after 20 minutes, after 30 minutes, after 60 minutes and after 120 minutes, and the samples were analyzed by MALDI-TOFMS (Matrix Assisted Laser Desorption/Ionization-Time Of Flight Mass Spectrometry). In Table 2, “UK” is an abbreviation for “unknown”. Further, the No. shown for each peptide in Table 2 corresponds with the numerical value recorded on the peaks of the graphs shown in FIG. 1.
Each of the peptides described above was added to human blood plasma having a concentration of 50% by mass, the resulting mixture was sampled immediately after starting the degradation test (after 0 minutes), and then after 5 minutes, after 10 minutes, after 20 minutes, after 30 minutes, after 60 minutes and after 120 minutes, and the samples were analyzed by MALDI-TOFMS. The results are shown in FIGS. 2 to 6 and Tables 4 to 6 shown below. Furthermore, the data for the degradation test by human blood plasma using PCPP11 from Reference Example 1 and the degradation tests by human blood plasma using each of the above peptides are collated in FIG. 7 and Table 7. The SEQ ID NO listed for the FAM-labeled peptide represents the SEQ ID NO of the peptide portion. Further, the No. shown for each peptide in Tables 4 to 6 corresponds with the numerical value recorded on the peaks of the graphs shown in FIGS. 2 to 6. In each table, in those cases where the numerical values are shown separated into an upper row and a lower row, the upper row value indicates the proportion (%) of peak area for two or more peptides relative to the total peak area in the MALDI-TOFMS analysis. On the other hand, the lower row value indicates the proportion (%) of each peptide when the peak area for the two or more peptides is deemed to be 100%. Moreover, for example, for the peptide No. 9 shown in Table 4, the left-side “70.0%” indicates the proportion (%) of the peptide No. 9 when the total peak area for the peptides No. 9 to 11 is deemed to be 100%, whereas the right-side “65%” indicates the proportion (%) of the peptide No. 9 relative to the total peak area in the MALDI-TOFMS analysis. This system is also used in the following tables.

[1] = 50% by mass human blood plasma, 5 min
[2] = 50% by mass human blood plasma, 10 min
[3] = 50% by mass human blood plasma, 20 min
[4] = 50% by mass human blood plasma, 30 min
[5] = 50% by mass human blood plasma, 60 min
[6] = 50% by mass human blood plasma, 120 min
[7] = 50% by mass human blood plasma, Start
[8] = LL peptide added to 50% by mass human blood plasma, 20 min
[9] = LL peptide added to 50% by mass human blood plasma, 60 min
[10] = LL peptide added to 50% by mass human blood plasma, 120 min

| Compound | remaining at 5 min [1] [%] | remaining at 10 min [2] [%] | remaining at 20 min [3] [%] | remaining at 0.5 h [4] [%] | remaining at 1 h [5] [%] | remaining at 2 h [6] [%] | degradation resistance (proportion of the peptide retained without degradation) [7] [%] | further results |
| --- | --- | --- | --- | --- | --- | --- | --- | --- |
| C[C@H](O)[C@@H](NC(=O)[C@@H](Cc1c[nH]c2ccccc12)NC(=O)[C@@H](Cc1c[nH]cn1)NC(=O)[C@@H](CCCCN)NC(=O)[C@H]1CCCN1C(=O)CNC(=O)[C@@H]1CCCN1C(=O)[C@H](CCCCN)NC(=O)[C@H](Cc1c[nH]cn1)NC(=O)[C@H](Cc1c[nH]c2ccccc12)NC(=O)[C@@H](NC(=O)[C@@H](NC(=O)[C@@H]1CCCN1C(=O)[C@H](CCCNC(=N)N)N(C)C(=O)[C@@H](N)CCCNC(=N)N)[C@@H](C)O)[C@@H](C)O)C(=O)N[C@@H](C(=O)N1CCC[C@@H]1C(=O)N[C@H](CCCNC(=N)N)C(=O)N[C@H](CCCNC(=N)N)C(=O)O)[C@H](C)O [compound 19] (H-R[NMeR]PTTWHKPG[dP][dK][dH][dW][dT][dT][dP][dR][dR]-OH; N-terminus and C-terminus assumed) | 100 | 100 | 100 | 100 | 100 | 100 | 100 | – |
| RRPTTWHKP [No. 1, reference compound] | – | – | – | – | – | – | – | persistence time (the time of stable existence) (50% by mass human blood plasma): less than 20 minutes |
| C[C@H](O)[C@@H](NC(=O)[C@@H](Cc1c[nH]c2ccccc12)NC(=O)[C@@H](Cc1c[nH]cn1)NC(=O)[C@@H](CCCCN)NC(=O)[C@H]1CCCN1C(=O)CNC(=O)[C@@H]1CCCN1C(=O)[C@H](CCCCN)NC(=O)[C@H](Cc1c[nH]cn1)NC(=O)[C@H](Cc1c[nH]c2ccccc12)NC(=O)[C@@H](NC(=O)[C@@H](NC(=O)[C@@H]1CCCN1C(=O)[C@H](CCCNC(=N)N)NC(=O)[C@@H](N)CCCNC(=N)N)[C@@H](C)O)[C@@H](C)O)C(=O)N[C@@H](C(=O)N1CCC[C@@H]1C(=O)N[C@H](CCCNC(=N)N)C(=O)N[C@H](CCCNC(=N)N)C(=O)O)[C@H](C)O [No. 15] (H-RRPTTWHKPG[dP][dK][dH][dW][dT][dT][dP][dR][dR]-OH; N-terminus and C-terminus assumed) | – | – | – | – | – | – | – | degradation resistance compared with the stand-alone PCPP11 and the FAM-PCPP11 (50% by mass human blood plasma): superior degradation resistance |
| RRPTTWHKPGRRPTTWHKP [No. 9] | – | – | – | – | – | – | – | degradation resistance compared with the stand-alone PCPP11 and the FAM-PCPP11 (50% by mass human blood plasma): superior degradation resistance |
| RRPTTWHKP [Peptide 1] | – | 67 | – | – | – | – | – | – |

Further lines, with some results ahead:

| remaining at 5 min [1] [%] | remaining at 10 min [2] [%] | remaining at 20 min [3] [%] | remaining at 0.5 h [4] [%] | remaining at 1 h [5] [%] | remaining at 2 h [6] [%] | degradation resistance (proportion of the peptide retained without degradation) [7] [%] | Compound | further results |
| --- | --- | --- | --- | --- | --- | --- | --- | --- |
| 100 | 100 | 94 | 84 | 58 | 32 | 100 | C[C@H](O)[C@@H](NC(=O)[C@@H](Cc1c[nH]c2ccccc12)NC(=O)[C@@H](Cc1c[nH]cn1)NC(=O)[C@@H](CCCCN)NC(=O)[C@H]1CCCN1C(=O)CNC(=O)[C@@H]1CCCN1C(=O)[C@H](CCCCN)NC(=O)[C@H](Cc1c[nH]cn1)NC(=O)[C@H](Cc1c[nH]c2ccccc12)NC(=O)[C@@H](NC(=O)[C@@H](NC(=O)[C@@H]1CCCN1C(=O)[C@H](CCCNC(=N)N)NC(=O)[C@@H](N)CCCNC(=N)N)[C@@H](C)O)[C@@H](C)O)C(=O)N[C@@H](C(=O)N1CCC[C@@H]1C(=O)N[C@H](CCCNC(=N)N)C(=O)N[C@H](CCCNC(=N)N)C(=O)O)[C@H](C)O [compound 15] (H-RRPTTWHKPG[dP][dK][dH][dW][dT][dT][dP][dR][dR]-OH; N-terminus and C-terminus assumed) | proportion of each peptide when the peak area for the two or more peptides is deemed to be 100% (Ld peptide added to 50% by mass human blood plasma, 5 min): (89.0%); proportion of each peptide when the peak area for the two or more peptides is deemed to be 100% (Ld peptide added to 50% by mass human blood plasma, 10 min): (82.2%); proportion of each peptide when the peak area for the two or more peptides is deemed to be 100% (Ld peptide added to 50% by mass human blood plasma, 20 min): (71.9%); proportion of each peptide when the peak area for the two or more peptides is deemed to be 100% (Ld peptide added to 50% by mass human blood plasma, 30 min): (62.3%); proportion of each peptide when the peak area for the two or more peptides is deemed to be 100% (Ld peptide added to 50% by mass human blood plasma, 60 min): (43.0%); proportion of each peptide when the peak area for the two or more peptides is deemed to be 100% (Ld peptide added to 50% by mass human blood plasma, 120 min): (24.6%); proportion of each peptide when the peak area for the two or more peptides is deemed to be 100% (Ld peptide added to 50% by mass human blood plasma, Start): (96.9%) |
| – | 84 | 89 | 91 | 79 | 65 | 100 | RRPTTWHKPGRRPTTWHKP [compound 9] | degradation resistance (proportion of the peptide retained without degradation) [1]: 100%; proportion of peak area relative to the total peak area in the MALDI-TOFMS analysis (LL peptide added to 50% by mass human blood plasma, 5 min): 100%; proportion of each peptide when the peak area for the two or more peptides is deemed to be 100% [8]: 92.1%; proportion of peak area relative to the total peak area in the MALDI-TOFMS analysis [8]: 89%; proportion of each peptide when the peak area for the two or more peptides is deemed to be 100% (LL peptide added to 50% by mass human blood plasma, 30 min): (92.1%); proportion of each peptide when the peak area for the two or more peptides is deemed to be 100% [9]: 82.1%; proportion of peak area relative to the total peak area in the MALDI-TOFMS analysis [9]: 79%; proportion of each peptide when the peak area for the two or more peptides is deemed to be 100% [10]: 70.0%; proportion of peak area relative to the total peak area in the MALDI-TOFMS analysis [10]: 65%; proportion of peak area relative to the total peak area in the MALDI-TOFMS analysis (LL peptide added to 50% by mass human blood plasma, Start): 100% |
| 100 | 90 | 92 | 87 | 73 | – | 100 | C[C@@H](O)[C@H](NC(=O)[C@@H](NC(=O)[C@@H]1CCCN1C(=O)[C@H](CCCNC(=N)N)NC(=O)[C@H](CCCNC(=N)N)NC(=O)c1ccc2c(c1)C(=O)OC21c2ccc(O)cc2Oc2cc(O)ccc21)[C@@H](C)O)C(=O)N[C@@H](Cc1c[nH]c2ccccc12)C(=O)N[C@@H](Cc1c[nH]cn1)C(=O)N[C@@H](CCCCN)C(=O)N1CCC[C@H]1C(=O)O [compound 13] (5FAM-RRPTTWHKP-OH; C-terminus assumed) | proportion of peak area relative to the total peak area in the MALDI-TOFMS analysis (FAM-L peptide added to 50% by mass human blood plasma, 5 min): 47.2%; proportion of peak area relative to the total peak area in the MALDI-TOFMS analysis (FAM-L peptide added to 50% by mass human blood plasma, 10 min): 43.2%; proportion of peak area relative to the total peak area in the MALDI-TOFMS analysis (FAM-L peptide added to 50% by mass human blood plasma, 20 min): 45.6%; proportion of peak area relative to the total peak area in the MALDI-TOFMS analysis (FAM-L peptide added to 50% by mass human blood plasma, 30 min): 43.6%; proportion of peak area relative to the total peak area in the MALDI-TOFMS analysis (FAM-L peptide added to 50% by mass human blood plasma, 60 min): 37.4%; proportion of peak area relative to the total peak area in the MALDI-TOFMS analysis (FAM-L peptide added to 50% by mass human blood plasma, 120 min): 13.5%; proportion of peak area relative to the total peak area in the MALDI-TOFMS analysis (FAM-L peptide added to 50% by mass human blood plasma, Start): 47.6% |
| 100 | 100 | 100 | 100 | 100 | 100 | 100 | C[C@@H](O)[C@H](NC(=O)[C@@H](NC(=O)[C@@H]1CCCN1C(=O)[C@H](CCCNC(=N)N)NC(=O)[C@H](CCCNC(=N)N)NC(=O)CNC(=O)[C@@H]1CCCN1C(=O)[C@H](CCCCN)NC(=O)[C@H](Cc1c[nH]cn1)NC(=O)[C@H](Cc1c[nH]c2ccccc12)NC(=O)[C@@H](NC(=O)[C@@H](NC(=O)[C@@H]1CCCN1C(=O)[C@H](CCCNC(=N)N)N(C)C(=O)[C@@H](N)CCCNC(=N)N)[C@@H](C)O)[C@@H](C)O)[C@@H](C)O)C(=O)N[C@@H](Cc1c[nH]c2ccccc12)C(=O)N[C@@H](Cc1c[nH]cn1)C(=O)N[C@@H](CCCCN)C(=O)N1CCC[C@H]1C(=O)O [compound 18] (H-R[NMeR]PTTWHKPGRRPTTWHKP-OH; N-terminus and C-terminus assumed) | – |
| – | – | – | – | – | 100 | – | RRPTTWHKPGRRPTTWHKPGRRPTTWHKP [Peptide 12] | – |
| 93 | – | – | – | – | – | 100 | RRPTTWHKP [compound 1] | – |
| 100 | 100 | 100 | 100 | 100 | – | 100 | RRPTTWHKPGRRPTTWHKPGRRPTTWHKP [compound 12] | – |
